Results published in US20240247042A1, “GLUCAGON LIKE PEPTIDE COMPOUNDS” (Novartis AG, priority 2021, published 2024).

How the values were obtained:
Format in all cases: cell-based
human GLP1R (hGLP1R) [1] = target: T1, human GLP1R (hGLP1R) (Homo sapiens, UniProt P43220); experiment: Human GLP1R cAMP agonist assay (GloSensor)
Target sequence in this assay (P43220 24-463): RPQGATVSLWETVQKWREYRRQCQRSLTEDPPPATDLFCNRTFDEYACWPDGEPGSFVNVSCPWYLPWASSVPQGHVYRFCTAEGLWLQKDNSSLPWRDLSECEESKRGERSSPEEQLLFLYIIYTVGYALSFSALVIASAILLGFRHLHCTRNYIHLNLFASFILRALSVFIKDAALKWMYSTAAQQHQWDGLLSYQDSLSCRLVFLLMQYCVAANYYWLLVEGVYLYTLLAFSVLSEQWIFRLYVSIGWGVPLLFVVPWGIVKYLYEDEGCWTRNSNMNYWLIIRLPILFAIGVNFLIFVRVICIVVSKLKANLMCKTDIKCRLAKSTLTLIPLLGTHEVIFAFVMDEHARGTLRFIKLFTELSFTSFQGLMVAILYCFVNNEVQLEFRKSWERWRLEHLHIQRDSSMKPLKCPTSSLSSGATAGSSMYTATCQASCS
Experimental: Compounds described herein were tested in the following cellular assays that measures the intracellular cAMP concentration. The cAMP is generated by the activation of GLP1R. EC50 is defined as the concentration of the compound that leads to half of the maximum response (after baseline correction).
The agonist activity of compounds was determined using the GloSensor™ cAMP Assay (Promega Corp.), which measures changes in the intracellular concentration of cAMP after ligand activation of GPCRs. The assay uses a biosensor encoded by pGloSensor™-22F cAMP plasmid (Promega, cat #E2301) with cAMP binding domains fused to a mutant form of Photinus pyralis luciferase. Binding to cAMP causes conformational changes that promote large increases in light output, which can be measured by a luminescence detector. […] The assay was started the following morning by adding an equal volume of CO2-independent media containing 4% v/v dilution of the GloSensor substrate (Promega, cat #E1291) to all wells. The cell plate was incubated at RT for 2 h in the dark. The Biomek i7 (Beckman Coulter) instrument was used for the liquid handling steps. To generate duplicate dose response curves, 3-fold serially diluted compounds were added in to the cell assay plate to a final volume of 60 μL with final concentrations ranging from 100 nM through 0.03 pM in CO2-independent media containing 0.1% BSA, 0.5 mM IBMX and 0.4% DMSO. […] Curve fitting for EC50 determinations was performed in the Helios module of the software package DAVID. The 4-parameter logistic model, Hill slope was used: y=Ainf+(A0−Ainf)/(1+(x/AC50)^Hill Slope), where y is the functional response; x is the compound concentration; A0 is the minimum value (at 0 dose); Ainf is the maximum value (at infinite dose); AC50 corresponds to the point of inflection (i.e., the point on the sigmoid shaped curve halfway between A0 and Ainf). The EC50 value was represented by the AC50 value calculated from Helios in μM. Emax is the maximal activity detected within the concentration range, derived from the fitted curve.
The HEK293-SNAP-hGLP1R stable cell clone that yielded the desired response was used for human GLP1R cAMP agonist assay.

human GLP1R [2] = target: T2, human GLP1R (Homo sapiens, UniProt P43220); experiment: Human GLP1R DERET recycling assay; details: for Receptor recycled mean: maximum receptor recycled as proportion of amount internalized; for T1/2 mean: rate at which receptor recycled back to the membrane after Exendin 9-39
T2 sequence (P43220 24-463): as above
Experimental: The extent to which agonists internalize or allow recycling of the human GLP1R was determined based on an optimized version of a RealTime FRET-based ‘DERET’ (Dissociation Enhanced Resonance Energy Transfer) assay. The technology relies on labeling of the SNAP-tagged GPCR with a SNAP-Lumi-Terbium (donor fluorophore, Cisbio, cat #SSNPTBD). The compounds are incubated with the cells over-expressing the GPCR of interest in the presence of an excess of fluorescein (acceptor fluorophore). When the GPCR is on the cell surface, the donor signal is quenched by the acceptor and the donor/acceptor ratio is low. As the GPCR internalizes, the donor signal is no longer quenched, and the acceptor is no longer excited so the donor/acceptor ratio increases. The addition of an excess of antagonist blocks further receptor internalization, allowing the receptor to recycle back to the membrane leading to a subsequent reduction in the donor/acceptor ratio. […] To generate triplicate dose response curves, compounds were serially diluted 3-fold in assay buffer, then added to the cell assay plate to a final volume of 40 μL and final top concentrations starting at 3 μM or less (depending on the case). […] EC0 wells with buffer only were also included. The plate FRET fluorescence was measured immediately using a Perkin Elmer Envision with LANCE/DELFIA D400 single mirror, excitation filter X320, and emission filters M615_203 (donor emission) and M515 (acceptor emission), and then measured every 30 min. […] Plates were kept at 37° C. between reads. Data was expressed as the ratio of donor/acceptor emissions using Microsoft Excel and plotted in GraphPad Prism.
Using this model, we determined a T1/2 rate at which the receptor recycled back to the membrane. We also determined a maximum percentage of receptor recycled as a proportion of the amount internalized initially.
The lower the internalization rate and the faster the receptor recycling rate the more the receptor is retained at the membrane.

human GLP1R [3] = target: T2, human GLP1R; experiment: Human GLP1R DERET internalization assay
human GLP1R (hGLP1R) [4] = target: T1, human GLP1R (hGLP1R); experiment: Human GLP1R β-arrestin recruitment assay (PathHunter); design: GeneArt (insert) 93-0164 (CHO-K1-EA parental cells); 93-0491 (pCMV PK vector bundle); host or cells: PathHunter CHO-K1-EA parental cells, single clone 1; details: for EC50: CHO-hGLP1R-β-arrestin cells
Target sequence in this assay (P43220 24-463): as above
Target sequence in this assay (P32121 whole entry partner): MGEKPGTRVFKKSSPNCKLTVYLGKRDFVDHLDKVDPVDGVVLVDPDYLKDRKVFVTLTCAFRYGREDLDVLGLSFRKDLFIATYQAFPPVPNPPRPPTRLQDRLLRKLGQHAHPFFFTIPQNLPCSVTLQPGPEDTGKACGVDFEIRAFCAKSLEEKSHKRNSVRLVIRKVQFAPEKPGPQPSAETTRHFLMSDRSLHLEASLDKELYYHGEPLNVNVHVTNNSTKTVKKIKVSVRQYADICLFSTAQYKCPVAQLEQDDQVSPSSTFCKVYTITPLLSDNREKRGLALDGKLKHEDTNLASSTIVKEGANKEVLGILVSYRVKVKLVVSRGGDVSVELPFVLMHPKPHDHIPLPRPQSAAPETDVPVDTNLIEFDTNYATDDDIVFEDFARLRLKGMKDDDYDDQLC
Experimental: The extent to which agonists recruited β-arrestin was measured using the PathHunter® β-arrestin assay (DiscoverX). This assay measures binding of β-arrestin to the receptor using an enzyme complementation approach. […] When β-arrestin is recruited to the receptor the enzyme becomes active and generates luminescence in the presence of a chemiluminescent substrate (PathHunter® Detection Kit, DiscoverX cat #93-0001). Luminescence can be measured on a relevant detector. […] The following day, agonists were prepared at 5 times the final required concentration. To generate triplicate dose response curves, compounds were serially diluted 3-fold in assay buffer (HBSS, 10 mM Hepes and 0.1% BSA), then added to the cell assay plate to a final volume of 25 μL and final top concentrations starting at 3 μM or less, depending on the compound. […] The plate was incubated at 37° C., 5% CO2 with humidity for 2 h after adding the compounds to the cells. […] The plate was incubated for an additional hour in the dark at RT. […] Curve fitting for EC50 determinations was performed using GraphPad Prism. The 4-parameter logistic model, Hill slope was used: Y=Bottom+(Top−Bottom)/(1+10^((Log EC50−X)*Hill Slope)), where Y is the functional response; X is the compound concentration; bottom is A0 or the minimum value (at 0 dose); top is Ainf or the maximum value (at infinite dose); EC50 is the point of inflection (i.e., the point on the sigmoid shaped curve halfway between A0 and Ainf). The EC50 value was calculated in μM.

| Structure (SMILES) | Emax (human GLP1R (hGLP1R) [1]) [%] | Receptor recycled mean (human GLP1R [2]) [%] | T1/2 mean (human GLP1R [2]) [h] | Emax (human GLP1R [3]) [%] | Emax (human GLP1R (hGLP1R) [4]) [%] | EC50 (human GLP1R (hGLP1R) [4]) [nM] | EC50 (human GLP1R [3]; receptor internalization, HEK293-SNAP-hGLP1R-GloSensor cells) [nM] |
| --- | --- | --- | --- | --- | --- | --- | --- |
| CCCCCCCCCCCC(CCCCCCCCCCC(=O)O)(C(=O)O)C(=O)NCCOCCOCCOCCOCCOCCOCCOCCOCCOCCOCCOCCOCCOCCOCCOCCOCCOCCOCCOCCOCCOCCOCCOCCOCCC(=O)NCCCC[C@H](NC(=O)[C@H](C)NC(=O)[C@H](C)NC(=O)[C@H](CCC(N)=O)NC(=O)CNC(=O)[C@H](CCC(=O)O)NC(=O)[C@H](CC(C)C)NC(=O)[C@H](Cc1ccc(O)cc1)NC(=O)[C@H](CO)NC(=O)[C@H](CO)NC(=O)[C@@H](NC(=O)[C@H](CC(=O)O)NC(=O)[C@H](CO)NC(=O)[C@@H](NC(=O)[C@H](Cc1ccccc1)NC(=O)[C@@H](NC(=O)CNC(=O)[C@H](CCC(=O)O)NC(=O)C(C)(C)NC(=O)[C@@H](N)Cc1c[nH]cn1)[C@@H](C)O)[C@@H](C)O)C(C)C)C(=O)N[C@@H](CCC(=O)O)C(=O)N[C@@H](Cc1ccccc1)C(=O)N[C@H](C(=O)N[C@@H](C)C(=O)N[C@@H](Cc1c[nH]c2ccccc12)C(=O)N[C@@H](CC(C)C)C(=O)N[C@H](C(=O)N[C@@H](CCCNC(=N)N)C(=O)NCC(=O)N[C@@H](CCCNC(=N)N)C(=O)NCC(=O)O)C(C)C)[C@@H](C)CC (stereo partly drawn) [Compound 1] | 105 | 65 |  |  |  |  |  |
| CCCCCCCCCCC[C@@](CCCCCCCCCCC(=O)O)(C(=O)O)C(=O)NCCOCCOCCOCCOCCOCCOCCOCCOCCOCCOCCOCCOCCOCCOCCOCCOCCOCCOCCOCCOCCOCCOCCOCCOCCC(=O)NCCCC[C@H](NC(=O)[C@H](C)NC(=O)[C@H](C)NC(=O)[C@H](CCC(N)=O)NC(=O)CNC(=O)[C@H](CCC(=O)O)NC(=O)[C@H](CC(C)C)NC(=O)[C@H](Cc1ccc(O)cc1)NC(=O)[C@H](CO)NC(=O)[C@H](CO)NC(=O)[C@@H](NC(=O)[C@H](CC(=O)O)NC(=O)[C@H](CO)NC(=O)[C@@H](NC(=O)[C@H](Cc1ccccc1)NC(=O)[C@@H](NC(=O)CNC(=O)[C@H](CCC(=O)O)NC(=O)C(C)(C)NC(=O)[C@@H](N)Cc1c[nH]cn1)[C@@H](C)O)[C@@H](C)O)C(C)C)C(=O)N[C@@H](CCC(=O)O)C(=O)N[C@@H](Cc1ccccc1)C(=O)N[C@H](C(=O)N[C@@H](C)C(=O)N[C@@H](Cc1c[nH]c2ccccc12)C(=O)N[C@@H](CC(C)C)C(=O)N[C@H](C(=O)N[C@@H](CCCNC(=N)N)C(=O)NCC(=O)N[C@@H](CCCNC(=N)N)C(=O)NCC(=O)O)C(C)C)[C@@H](C)CC [Compound 2] | 115 | 68 | 1.19 |  |  |  |  |
| CCCCCCCCCCC[C@](CCCCCCCCCCC(=O)O)(C(=O)O)C(=O)NCCOCCOCCOCCOCCOCCOCCOCCOCCOCCOCCOCCOCCOCCOCCOCCOCCOCCOCCOCCOCCOCCOCCOCCOCCC(=O)NCCCC[C@H](NC(=O)[C@H](C)NC(=O)[C@H](C)NC(=O)[C@H](CCC(N)=O)NC(=O)CNC(=O)[C@H](CCC(=O)O)NC(=O)[C@H](CC(C)C)NC(=O)[C@H](Cc1ccc(O)cc1)NC(=O)[C@H](CO)NC(=O)[C@H](CO)NC(=O)[C@@H](NC(=O)[C@H](CC(=O)O)NC(=O)[C@H](CO)NC(=O)[C@@H](NC(=O)[C@H](Cc1ccccc1)NC(=O)[C@@H](NC(=O)CNC(=O)[C@H](CCC(=O)O)NC(=O)C(C)(C)NC(=O)[C@@H](N)Cc1c[nH]cn1)[C@@H](C)O)[C@@H](C)O)C(C)C)C(=O)N[C@@H](CCC(=O)O)C(=O)N[C@@H](Cc1ccccc1)C(=O)N[C@H](C(=O)N[C@@H](C)C(=O)N[C@@H](Cc1c[nH]c2ccccc12)C(=O)N[C@@H](CC(C)C)C(=O)N[C@H](C(=O)N[C@@H](CCCNC(=N)N)C(=O)NCC(=O)N[C@@H](CCCNC(=N)N)C(=O)NCC(=O)O)C(C)C)[C@@H](C)CC [Compound 3] |  | 69 | 1.24 |  |  |  |  |
| CCCCCCCCCCCC(CCCCCCCCCCC(=O)O)(C(=O)O)C(=O)NCCOCCOCCOCCOCCOCCOCCOCCOCCC(=O)NCCCC[C@H](NC(=O)[C@H](C)NC(=O)[C@H](C)NC(=O)[C@H](CCC(N)=O)NC(=O)CNC(=O)[C@H](CCC(=O)O)NC(=O)[C@H](CC(C)C)NC(=O)[C@H](Cc1ccc(O)cc1)NC(=O)[C@H](CO)NC(=O)[C@H](CO)NC(=O)[C@@H](NC(=O)[C@H](CC(=O)O)NC(=O)[C@H](CO)NC(=O)[C@@H](NC(=O)[C@H](Cc1ccccc1)NC(=O)[C@@H](NC(=O)CNC(=O)[C@H](CCC(=O)O)NC(=O)C(C)(C)NC(=O)[C@@H](N)Cc1c[nH]cn1)[C@@H](C)O)[C@@H](C)O)C(C)C)C(=O)N[C@@H](CCC(=O)O)C(=O)N[C@@H](Cc1ccccc1)C(=O)N[C@H](C(=O)N[C@@H](C)C(=O)N[C@@H](Cc1c[nH]c2ccccc12)C(=O)N[C@@H](CC(C)C)C(=O)N[C@H](C(=O)N[C@@H](CCCNC(=N)N)C(=O)NCC(=O)N[C@@H](CCCNC(=N)N)C(=O)NCC(=O)O)C(C)C)[C@@H](C)CC (stereo partly drawn) [Compound 4] | 119 | 65 |  | 100 | 84 |  |  |
| CC[C@H](C)[C@H](NC(=O)[C@H](Cc1ccccc1)NC(=O)[C@H](CCC(=O)O)NC(=O)[C@H](CCCCNC(=O)CCOCCOCCOCCOCCOCCOCCOCCOCCOCCOCCOCCOCCOCCOCCOCCOCCOCCOCCOCCOCCOCCOCCOCCOCCNC(=O)C(CCCCCCCCCCC(=O)O)(CCCCCCCCCCC(=O)O)C(=O)O)NC(=O)[C@H](C)NC(=O)[C@H](C)NC(=O)[C@H](CCC(N)=O)NC(=O)CNC(=O)[C@H](CCC(=O)O)NC(=O)[C@H](CC(C)C)NC(=O)[C@H](Cc1ccc(O)cc1)NC(=O)[C@H](CO)NC(=O)[C@H](CO)NC(=O)[C@@H](NC(=O)[C@H](CC(=O)O)NC(=O)[C@H](CO)NC(=O)[C@@H](NC(=O)[C@H](Cc1ccccc1)NC(=O)[C@@H](NC(=O)CNC(=O)[C@H](CCC(=O)O)NC(=O)C(C)(C)NC(=O)[C@@H](N)Cc1c[nH]cn1)[C@@H](C)O)[C@@H](C)O)C(C)C)C(=O)N[C@@H](C)C(=O)N[C@@H](Cc1c[nH]c2ccccc12)C(=O)N[C@@H](CC(C)C)C(=O)N[C@H](C(=O)N[C@@H](CCCNC(=N)N)C(=O)NCC(=O)N[C@@H](CCCNC(=N)N)C(=O)NCC(=O)O)C(C)C [Compound 6] | 111 | 70 | 1.15 | 92 | 75 | 70 |  |
| CC[C@H](C)[C@H](NC(=O)[C@H](Cc1ccccc1)NC(=O)[C@H](CCC(=O)O)NC(=O)[C@H](CCCCNC(=O)CCOCCOCCOCCOCCOCCOCCOCCOCCOCCOCCOCCOCCOCCOCCOCCOCCOCCOCCOCCOCCOCCOCCOCCOCCNC(=O)C(CCCCCCCCCCCC(=O)O)(CCCCCCCCCCCC(=O)O)C(=O)O)NC(=O)[C@H](C)NC(=O)[C@H](C)NC(=O)[C@H](CCC(N)=O)NC(=O)CNC(=O)[C@H](CCC(=O)O)NC(=O)[C@H](CC(C)C)NC(=O)[C@H](Cc1ccc(O)cc1)NC(=O)[C@H](CO)NC(=O)[C@H](CO)NC(=O)[C@@H](NC(=O)[C@H](CC(=O)O)NC(=O)[C@H](CO)NC(=O)[C@@H](NC(=O)[C@H](Cc1ccccc1)NC(=O)[C@@H](NC(=O)CNC(=O)[C@H](CCC(=O)O)NC(=O)C(C)(C)NC(=O)[C@@H](N)Cc1c[nH]cn1)[C@@H](C)O)[C@@H](C)O)C(C)C)C(=O)N[C@@H](C)C(=O)N[C@@H](Cc1c[nH]c2ccccc12)C(=O)N[C@@H](CC(C)C)C(=O)N[C@H](C(=O)N[C@@H](CCCNC(=N)N)C(=O)NCC(=O)N[C@@H](CCCNC(=N)N)C(=O)NCC(=O)O)C(C)C [Compound 7] |  | 71 | 1.27 | 77 | 82 |  |  |
| CC[C@H](C)[C@H](NC(=O)[C@H](Cc1ccccc1)NC(=O)[C@H](CCC(=O)O)NC(=O)[C@H](CCCCNC(=O)CCOCCOCCOCCOCCOCCOCCOCCOCCOCCOCCOCCOCCOCCOCCOCCOCCOCCOCCOCCOCCOCCOCCOCCOCCNC(=O)C(CCCCCCCCCCCCCC(=O)O)(CCCCCCCCCCCCCC(=O)O)C(=O)O)NC(=O)[C@H](C)NC(=O)[C@H](C)NC(=O)[C@H](CCC(N)=O)NC(=O)CNC(=O)[C@H](CCC(=O)O)NC(=O)[C@H](CC(C)C)NC(=O)[C@H](Cc1ccc(O)cc1)NC(=O)[C@H](CO)NC(=O)[C@H](CO)NC(=O)[C@@H](NC(=O)[C@H](CC(=O)O)NC(=O)[C@H](CO)NC(=O)[C@@H](NC(=O)[C@H](Cc1ccccc1)NC(=O)[C@@H](NC(=O)CNC(=O)[C@H](CCC(=O)O)NC(=O)C(C)(C)NC(=O)[C@@H](N)Cc1c[nH]cn1)[C@@H](C)O)[C@@H](C)O)C(C)C)C(=O)N[C@@H](C)C(=O)N[C@@H](Cc1c[nH]c2ccccc12)C(=O)N[C@@H](CC(C)C)C(=O)N[C@H](C(=O)N[C@@H](CCCNC(=N)N)C(=O)NCC(=O)N[C@@H](CCCNC(=N)N)C(=O)NCC(=O)O)C(C)C [Compound 8] | 106 |  |  |  |  |  |  |
| CC[C@H](C)[C@H](NC(=O)[C@H](Cc1ccccc1)NC(=O)[C@H](CCC(=O)O)NC(=O)[C@H](CCCCNC(=O)CCOCCOCCOCCOCCOCCOCCOCCOCCOCCOCCOCCOCCOCCOCCOCCOCCOCCOCCOCCOCCOCCOCCOCCOCCNC(=O)C(CCCCCCCCCCCCCCC(=O)O)(CCCCCCCCCCCCCCC(=O)O)C(=O)O)NC(=O)[C@H](C)NC(=O)[C@H](C)NC(=O)[C@H](CCC(N)=O)NC(=O)CNC(=O)[C@H](CCC(=O)O)NC(=O)[C@H](CC(C)C)NC(=O)[C@H](Cc1ccc(O)cc1)NC(=O)[C@H](CO)NC(=O)[C@H](CO)NC(=O)[C@@H](NC(=O)[C@H](CC(=O)O)NC(=O)[C@H](CO)NC(=O)[C@@H](NC(=O)[C@H](Cc1ccccc1)NC(=O)[C@@H](NC(=O)CNC(=O)[C@H](CCC(=O)O)NC(=O)C(C)(C)NC(=O)[C@@H](N)Cc1c[nH]cn1)[C@@H](C)O)[C@@H](C)O)C(C)C)C(=O)N[C@@H](C)C(=O)N[C@@H](Cc1c[nH]c2ccccc12)C(=O)N[C@@H](CC(C)C)C(=O)N[C@H](C(=O)N[C@@H](CCCNC(=N)N)C(=O)NCC(=O)N[C@@H](CCCNC(=N)N)C(=O)NCC(=O)O)C(C)C [Compound 9] | 107 |  |  | 22 | 37 | > 2000 | > 1000 |
